From patent publication US9758505B2, “3-(indol-3-yl)-pyridine derivatives, pharmaceutical compositions and methods for use” (ITEOS THERAPEUTICS, priority 2014, dated 2017)

Columns and labels:
human TDO2 [1] = biological target: T1, human TDO2 (Homo sapiens (Human), UniProt P48775); assay: Assay for TDO2 enzymatic activity determination; format: biochemical; details: human recombinant TDO2, L-Trp 1 mM, kynurenine absorbance at 480 nm
Experimental: The compounds of formula I inhibit the enzymatic activity of human TDO2.
To measure the TDO2 activity, the procedure described in Dolusic et al. J. Med. Chem.; 2011, 54, […] was adapted: the reaction mixture contained (final concentrations) potassium phosphate buffer (50 mM, pH 7.5), ascorbic acid (0.25 M), methylene blue (0.125 μM), catalase (40 units/mL, from bovine liver, Sigma), and human recombinant TDO2 enzyme (prepared as described in Dolusic et al. J. Med. Chem.; 2011, 54, 5320-5334; 0.9 μg) without or with the compounds of the present invention at the indicated concentrations (total volume 112.5 μL). The reaction was initiated by the addition of 37.5 μL of L-Trp (final concentration 1 mM) at room temperature. The reaction was conducted at room temperature during one hour and stopped by the addition of 30 μL of 30% (w/v) trichloroacetic acid.
To convert N-formylkynurenine into kynurenine, the reaction mixture was incubated at 65° C. for 30 min. Then 150 μL of the reaction mixture was mixed with 120 μL of 2.5% (w/v) 4-(dimethylamino)-benzaldehyde in acetic acid and incubated for 5 min at room temperature. Kynurenine concentrations were determined by measuring the absorbance at 480 nm. A standard curve was made with pure kynurenine. The TDO activity was measured as described above using ten serial concentrations of the compounds of the present invention. Data were fitted using the Prism™ software (GraphPad Software, Inc.) using standard software configurations.

human TDO2 [2] = biological target: T1, human TDO2; assay: Cellular assay for TDO2 activity, hTDO2-overexpressing P815 cells; format: cell-based; details: murine mastocytoma P815 cells overexpressing hTDO2, overnight incubation, kynurenine in supernatant
Experimental: The compounds of Formula I inhibit the activity of human TDO2 in cells.
The assay (adapted from Pilotte L et al., Proc Natl Acad Sci USA, 2012, 109(7), 2497-502) was performed in 96-well flat bottom plates seeded with murine mastocytoma P815 cells overexpressing hTDO2 (prepared as described in Pilotte et al., PNAS, 2012, 109(7), 2497-2502), at a concentration of 5×10^4 cells/well in a final volume of 200 μL. To determine TDO or IDO activity, the cells were incubated overnight at 37° C. at 5% CO2 in IMDM (Invitrogen) supplemented with 2% FBS and 2% penicillin/streptomycin in the presence of the compounds of the present invention, at different concentrations. The cells may be obtained from the American Type Cuylture Collecion [ATCC® TIB-64™ or commercially, e.g., from Sigma-Aldrich or Life Technologies.]
(§1) The plates were then centrifuged 5 min at 1000 rpm, and 100 μL of the supernatant were collected in a conical plate, 30 uL of TCA 30% were added and a further centrifugated at 3000×g for 10 minutes. 100 μL of the supernatant were collected in a flat bottomed plate and 100 μL of 2% (w/v) 4-(dimethylamino)-benzaldehyde in acetic acid and incubated for 5 min at room temperature. Kynurenine concentrations were determined by measuring the absorbance at 480 nm. A standard curve was made with pure kynurenine. The TDO activity was measured as described above using ten serial concentrations of the compounds of the present invention. Data were fitted using the Prism™ software (GraphPad Software, Inc.) using standard software configurations.

human TDO2 [3] = biological target: T1, human TDO2; assay: Cellular assay for TDO2 activity, A172 cells naturally expressing hTDO2; format: cell-based; details: human glioblastoma A172 cells, overnight incubation, kynurenine in supernatant
Experimental: A172 is a cell line derived from human brain glioblastoma cells.
To determine TDO, the cells were incubated overnight at 37° C. at 5% CO2 in IMDM (Invitrogen) supplemented with 2% FBS and 2% penicillin/streptomycin in the presence of the compounds of the present invention, at different concentrations.
as §1

TDO2 = TDO2 (Mus musculus (Mouse), UniProt P48776); assay: Pharmacodynamic assay for TDO2 in vivo activity: increase of blood tryptophan levels in mice; details: female BALB/c mice, 2 h
From the text: The compounds of the present invention increase the amount of Tryptophan in mouse blood.

T1 sequence (P48775 whole entry): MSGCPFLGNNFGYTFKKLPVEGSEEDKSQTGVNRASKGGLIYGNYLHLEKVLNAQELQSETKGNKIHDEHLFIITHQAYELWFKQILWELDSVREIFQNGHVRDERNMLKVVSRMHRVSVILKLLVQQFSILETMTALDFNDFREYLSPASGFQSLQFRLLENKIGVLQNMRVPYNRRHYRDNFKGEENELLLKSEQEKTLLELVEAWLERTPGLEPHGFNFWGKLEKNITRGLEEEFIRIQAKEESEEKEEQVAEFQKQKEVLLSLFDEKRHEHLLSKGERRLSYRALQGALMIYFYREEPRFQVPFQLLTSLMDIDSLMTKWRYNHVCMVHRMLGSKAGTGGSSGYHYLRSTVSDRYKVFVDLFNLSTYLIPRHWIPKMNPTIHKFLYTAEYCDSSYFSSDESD
Sequence of TDO2 (P48776 whole entry): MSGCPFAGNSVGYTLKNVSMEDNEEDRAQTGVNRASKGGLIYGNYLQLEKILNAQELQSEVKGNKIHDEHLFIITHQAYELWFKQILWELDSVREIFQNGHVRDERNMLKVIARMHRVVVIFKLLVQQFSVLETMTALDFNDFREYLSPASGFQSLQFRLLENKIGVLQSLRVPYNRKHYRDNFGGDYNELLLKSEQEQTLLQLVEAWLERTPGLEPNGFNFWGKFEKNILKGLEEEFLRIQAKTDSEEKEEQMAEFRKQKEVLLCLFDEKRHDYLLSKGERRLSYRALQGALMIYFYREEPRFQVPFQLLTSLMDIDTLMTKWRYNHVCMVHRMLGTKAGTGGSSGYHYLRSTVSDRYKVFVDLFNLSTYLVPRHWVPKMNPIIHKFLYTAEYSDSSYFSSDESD

| Compound | IC50 (human TDO2 [1]) | IC50 (human TDO2 [2]) | other results |
| --- | --- | --- | --- |
| Cc1cncc(-c2c[nH]c3cc(F)ccc23)c1 [Example 48, 6-fluoro-3-(5-methylpyridin-3-yl)-1H-indole] | 4500 nM | 620 nM |  |
| CS(=O)(=O)NCCCNc1ccc(-c2c[nH]c3cc(F)ccc23)cn1 [Example 21, N-(3-(5-(6-fluoro-1H-indol-3-yl)pyridin-2-ylamino)propyl)methanesulfonamide] | 620 nM | 350 nM |  |
| CN(C)CCOc1ccc(-c2c[nH]c3cc(F)ccc23)cn1 [Example 4, 2-(5-(6-fluoro-1H-indol-3-yl)pyridin-2-yloxy)-N,N-dimethylethanamine] | 39000 nM | 680 nM |  |
| CS(=O)(=O)NC1CCN(c2ccc(-c3c[nH]c4cc(F)ccc34)cn2)CC1 [Example 14, N-(1-(5-(6-fluoro-1H-indol-3-yl)pyridin-2-yl)piperidin-4-yl)methanesulfonamide] | 970 nM | 610 nM | IC50 (human TDO2 [3]): 1800 nM; Tryptophan concentration in plasma (average ± standard error of the mean) (TDO2; 30 mg/kg oral gavage): 27976 ± 1196; increase of circulating Tryptophan compared to vehicle-treated controls (TDO2; 30 mg/kg oral gavage): 33%; Tryptophan concentration in plasma (average ± standard error of the mean) (TDO2; 60 mg/kg oral gavage): 33862 ± 1529; increase of circulating Tryptophan compared to vehicle-treated controls (TDO2; 60 mg/kg oral gavage): 61%; Tryptophan concentration in plasma (average ± standard error of the mean) (TDO2; 100 mg/kg oral gavage): 35716 ± 1663; increase of circulating Tryptophan compared to vehicle-treated controls (TDO2; 100 mg/kg oral gavage): 70% |
| CN1CCN(c2ccc(-c3c[nH]c4cc(F)ccc34)cn2)CC1 [Example 10, 6-fluoro-3-(6-(4-methylpiperazin-1-yl)pyridin-3-yl)-1H-indole] | 720 nM | 130 nM |  |
| OCCNc1ccc(-c2c[nH]c3cc(F)ccc23)cn1 [Example 27, 2-(5-(6-fluoro-1H-indol-3-yl)pyridin-2-ylamino)ethanol] | 490 nM | 190 nM |  |
| COc1ccc(-c2c[nH]c3cc(F)ccc23)cn1 [Example 5, 6-fluoro-3-(6-methoxypyridin-3-yl)-1H-indole] | 730 nM | 120 nM |  |
| Fc1ccc2c(-c3ccc(NC4CCNCC4)nc3)c[nH]c2c1 [Example 17, 5-(6-fluoro-1H-indol-3-yl)-N-(piperidin-4-yl)pyridin-2-amine] | 870 nM | 1300 nM |  |
| NCC(=O)NC1CCN(c2ccc(-c3c[nH]c4cc(F)ccc34)cn2)CC1 [Example 13, 2-amino-N-(1-(5-(6-fluoro-1H-indol-3-yl)pyridin-2-yl)piperidin-4-yl)acetamide] | 1700 nM | 550 nM |  |
| O=C(O)CNc1ccc(-c2c[nH]c3cc(F)ccc23)cn1 [Example 30, 2-(5-(6-fluoro-1H-indol-3-yl)pyridin-2-ylamino)acetic acid] | 1600 nM | 1500 nM |  |
| CS(=O)(=O)CCCNc1ccc(-c2c[nH]c3cc(F)ccc23)cn1 [Example 22, 5-(6-fluoro-1H-indol-3-yl)-N-(3-(methylsulfonyl)propyl)pyridin-2-amine] | 1200 nM | 400 nM |  |
| Cc1ncccc1-c1c[nH]c2cc(F)ccc12 [Example 45, 6-fluoro-3-(2-methylpyridin-3-yl)-1H-indole] | 860 nM | 220 nM |  |
| CN(C)c1ccc(-c2c[nH]c3cc(F)ccc23)cn1 [Example 7, 5-(6-fluoro-1H-indol-3-yl)-N,N-dimethylpyridin-2-amine] | 380 nM | 320 nM |  |
| Nc1ccc(-c2c[nH]c3cc(F)ccc23)cn1 [Example 15, 5-(6-fluoro-1H-indol-3-yl)pyridin-2-amine] | 1100 nM | 130 nM |  |
| CC(=O)Nc1ccc(-c2c[nH]c3cc(F)ccc23)cn1 [Example 40, N-(5-(6-fluoro-1H-indol-3-yl)pyridin-2-yl)acetamide] | 1000 nM | 150 nM | IC50 (human TDO2 [3]): 130 nM |
| O=C1NCCN1c1ccc(-c2c[nH]c3cc(F)ccc23)cn1 [Example 78, 1-(5-(6-fluoro-1H-indol-3-yl)pyridin-2-yl)imidazolidin-2-one] | 16000 nM |  | IC50 (human TDO2 [3]): 490 nM |
| NC(=O)CNc1ccc(-c2c[nH]c3cc(F)ccc23)cn1 [Example 31, 2-(5-(6-fluoro-1H-indol-3-yl)pyridin-2-ylamino)acetamide] | 790 nM | 120 nM |  |
| CN(C)CCNc1ccc(-c2c[nH]c3cc(F)ccc23)cn1 [Example 25, N^1-(5-(6-fluoro-1H-indol-3-yl)pyridin-2-yl)-N^2,N^2-dimethylethane-1,2-diamine] | 540 nM | 140 nM |  |
| Fc1ccc2c(-c3ccc(N4CCOCC4)nc3)c[nH]c2c1 [Example 9, 4-(5-(6-fluoro-1H-indol-3-yl)pyridin-2-yl)morpholine] | 540 nM | 210 nM |  |
| Fc1cc2[nH]cc(-c3cccnc3)c2cc1F [Example 47, 5,6-difluoro-3-(pyridin-3-yl)-1H-indole] | 2800 nM | 240 nM |  |
| NCC(=O)N1CCN(c2ccc(-c3c[nH]c4cc(F)ccc34)cn2)CC1 [Example 11, 2-amino-1-(4-(5-(6-fluoro-1H-indol-3-yl)pyridin-2-yl)piperazin-1-yl)ethanone] | 650 nM | 650 nM |  |
| Cc1ccncc1-c1c[nH]c2cc(F)ccc12 [Example 46, 6-fluoro-3-(4-methylpyridin-3-yl)-1H-indole] | 13000 nM | 670 nM |  |
| Cc1ccc(-c2c[nH]c3cc(F)ccc23)cn1 [Example 1, 6-fluoro-3-(6-methylpyridin-3-yl)-1H-indole] | 370 nM | 180 nM |  |
| CS(=O)(=O)CCNc1ccc(-c2c[nH]c3cc(F)ccc23)cn1 [Example 28, 5-(6-fluoro-1H-indol-3-yl)-N-(2-(methylsulfonyl)ethyl)pyridin-2-amine] | 1500 nM | 1000 nM |  |
| Fc1ccc2c(-c3cccnc3)c[nH]c2c1 [Example 44, 6-fluoro-3-(pyridin-3-yl)-1H-indole] | 850 nM | 68 nM | IC50 (human TDO2 [3]): 600 nM |
| CNc1ccc(-c2c[nH]c3cc(F)ccc23)cn1 [Example 34, 5-(6-fluoro-1H-indol-3-yl)-N-methylpyridin-2-amine] | 290 nM | 240 nM | IC50 (human TDO2 [3]): 1600 nM |
